Assay results taken from PMC10281575, “PfCRT mutations conferring piperaquine resistance in falciparum malaria shape the kinetics of quinoline drug binding and transport” (PLOS Pathogens, 2023).
Where a chain is given by its changes, count along the chain named. Entries after “also recorded” stand apart in the source; their conditions may differ.

Legend:
[1] = target: T1, PfCRT^Dd2 (Plasmodium falciparum, UniProt Q8IBZ9, A220S/I356T/K76T/M74I/N326S/N75E/Q271E/R371I); design: expressed in transfected cells; host or cells: Xenopus laevis oocytes injected with in vitro transcribed RNA (pSP64T); details: cited from earlier work
T1 sequence (Q8IBZ9 1-424 M74I/N75E/K76T/A220S/Q271E/N326S/I356T/R371I): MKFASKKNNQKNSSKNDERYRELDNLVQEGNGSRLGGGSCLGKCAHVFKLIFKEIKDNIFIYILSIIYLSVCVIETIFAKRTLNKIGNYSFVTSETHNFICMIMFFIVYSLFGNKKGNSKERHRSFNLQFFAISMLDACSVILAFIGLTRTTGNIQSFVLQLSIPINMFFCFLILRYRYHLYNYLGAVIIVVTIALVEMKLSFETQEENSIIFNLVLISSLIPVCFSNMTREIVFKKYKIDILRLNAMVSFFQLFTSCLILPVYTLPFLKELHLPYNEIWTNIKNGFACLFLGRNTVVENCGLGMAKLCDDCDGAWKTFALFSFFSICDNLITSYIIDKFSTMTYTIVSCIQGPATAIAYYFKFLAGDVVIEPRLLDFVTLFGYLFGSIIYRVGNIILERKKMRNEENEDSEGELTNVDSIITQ

[2] = target: T2, PfCRT^Dd2_H97Y (Plasmodium falciparum, UniProt Q8IBZ9, A220S/H97Y/I356T/K76T/M74I/N326S/N75E/Q271E/R371I); assay: Verapamil inhibition of PfCRT-mediated CQ and PPQ transport in oocytes, PfCRT^Dd2_H97Y; format: cell-based; details: 100 μM verapamil, 50 μM CQ or PPQ
T2 construct: expressed in transfected cells; host or cells: Xenopus laevis oocytes injected with in vitro transcribed RNA (pSP64T)
T2 sequence (Q8IBZ9 1-424 M74I/N75E/K76T/H97Y/A220S/Q271E/N326S/I356T/R371I): T1 sequence (Q8IBZ9 1-424 M74I/N75E/K76T/A220S/Q271E/N326S/I356T/R371I) with H97Y
Protocol: (§1) In all cases, the PfCRT-mediated CQ and PPQ transport was inhibited in the presence of 100 μM verapamil (S3 Fig).
(§2) Drug transport assays were performed as previously described. Briefly, measurements of radiolabeled drug uptake were made over 1 h, unless otherwise specified. […] Where specified, one or more unlabeled drugs were also present at the indicated concentrations. The direction of drug transport in the assays is from the extracellular medium (pH 6) into the oocyte cytosol (pH 7.2), which corresponds to the efflux of CQ or PPQ from the acidic digestive vacuole (pH 5.2) into the parasite cytosol (pH 7.2). The uptake assays were terminated by removing the oocytes from the reaction medium and washing them three times with 2 mL of ice-cold ND96 buffer. Each oocyte was transferred to a separate scintillation vial and lysed by the addition of 200 μL of a 5% SDS solution. The radioactivity in the sample was measured using a liquid scintillation analyser Tri-Carb 4910 TR (PerkinElmer). Water-injected oocytes were analyzed in parallel as a negative control. The buffer from each condition was measured in duplicate in parallel to each experiment to transform counts per minute into pmol of drug. Drug uptake attributable to PfCRT was determined by subtracting the background uptake from water-injected oocytes from that of PfCRT-expressing oocytes. In all cases, at least three independent experiments were performed on oocytes from different frogs, and for each condition in an experiment, measurements were made from 10 oocytes per treatment.
(§3) Supplementary file ppat.1011436.s006.tif: S3 Fig Verapamil inhibits PfCRT-mediated transport of CQ and PPQ. […] Left panels, data is shown as individual biological replicates (coloured symbols) overlaid onto bars representing the Mean ± S.E.M. (error bars). A one-tailed Student’s t-test was performed between untreated (no VP) and treated (+ 100 μM VP) samples, and the obtained p values are shown. Right panels, the uptake in VP-treated samples was divided by the uptake in their corresponding untreated pairs and subtracted from 100% to get the percentage of uptake inhibition mediated by the presence of 100 μM verapamil in the extracellular medium. Error bars are S.E. (TIF) Click here for additional data file.

[3] = target: T3, PfCRT^Dd2_F145I (Plasmodium falciparum, UniProt Q8IBZ9, A220S/F145I/I356T/K76T/M74I/N326S/N75E/Q271E/R371I); assay: Verapamil inhibition of PfCRT-mediated CQ and PPQ transport in oocytes, PfCRT^Dd2_F145I; format: cell-based; details: 100 μM verapamil, 50 μM CQ or PPQ
T3 construct: expressed in transfected cells; host or cells: Xenopus laevis oocytes injected with in vitro transcribed RNA (pSP64T)
T3 sequence (Q8IBZ9 1-424 M74I/N75E/K76T/F145I/A220S/Q271E/N326S/I356T/R371I): T1 sequence (Q8IBZ9 1-424 M74I/N75E/K76T/A220S/Q271E/N326S/I356T/R371I) with F145I
Protocol: as §1
as §2, with “In all cases, at least three independent experiments were performed on oocytes from different frogs, and for each condition in an experiment, measurements were made from 10 oocytes per treatment.” left out

[4] = target: T4, PfCRT^Dd2_M343L (Plasmodium falciparum, UniProt Q8IBZ9, A220S/I356T/K76T/M343L/M74I/N326S/N75E/Q271E/R371I); assay: Verapamil inhibition of PfCRT-mediated CQ and PPQ transport in oocytes, PfCRT^Dd2_M343L; format: cell-based; details: 100 μM verapamil, 50 μM CQ or PPQ
T4 construct: expressed in transfected cells; host or cells: Xenopus laevis oocytes injected with in vitro transcribed RNA (pSP64T)
T4 sequence (Q8IBZ9 1-424 M74I/N75E/K76T/A220S/Q271E/N326S/M343L/I356T/R371I): T1 sequence (Q8IBZ9 1-424 M74I/N75E/K76T/A220S/Q271E/N326S/I356T/R371I) with M343L
Protocol: as §1, §2, §3

[5] = target: T5, PfCRT^Dd2_G353V (Plasmodium falciparum, UniProt Q8IBZ9, A220S/G353V/I356T/K76T/M74I/N326S/N75E/Q271E/R371I); assay: Verapamil inhibition of PfCRT-mediated CQ and PPQ transport in oocytes, PfCRT^Dd2_G353V; format: cell-based; details: 100 μM verapamil, 50 μM CQ or PPQ
T5 construct: expressed in transfected cells; host or cells: Xenopus laevis oocytes injected with in vitro transcribed RNA (pSP64T)
T5 sequence (Q8IBZ9 1-424 M74I/N75E/K76T/A220S/Q271E/N326S/G353V/I356T/R371I): T1 sequence (Q8IBZ9 1-424 M74I/N75E/K76T/A220S/Q271E/N326S/I356T/R371I) with G353V
Protocol: as §1, §2, §3

[6] = target: T1, PfCRT^Dd2; assay: Verapamil inhibition of PfCRT-mediated CQ and PPQ transport in oocytes, PfCRT^Dd2; format: cell-based; design: expressed in transfected cells; host or cells: Xenopus laevis oocytes injected with in vitro transcribed RNA (pSP64T); details: 100 μM verapamil, 50 μM CQ or PPQ
Protocol: as §1, §2, §3

Row | Structure (SMILES) | inhibition model versus CQ on PfCRT [1] | PfCRT-mediated CQ and PPQ transport in the presence of verapamil [2] | PfCRT-mediated CQ and PPQ transport in the presence of verapamil [3] | PfCRT-mediated CQ and PPQ transport in the presence of verapamil [4] | PfCRT-mediated CQ and PPQ transport in the presence of verapamil [5] | PfCRT-mediated CQ and PPQ transport in the presence of verapamil [6]
1 | C=C[C@H]1C[N@@]2CC[C@H]1C[C@H]2[C@H](O)c1ccnc2ccc(OC)cc12 [quinine] | partial mixed-type inhibition | – | – | – | – | –
2 | COc1ccc(CCN(C)CCCC(C#N)(c2ccc(OC)c(OC)c2)C(C)C)cc1OC (stereo not shown) [verapamil] | partial mixed-type inhibitor; also recorded: mixed-type inhibition | inhibited | inhibited | inhibited | inhibited | inhibited
